# In article PMC5218480 (PLoS ONE, 2017):
# System: MV-4-11 cells
# Test: Gene expression microarray analysis (Affymetrix PrimeView) and GSEA
# Format: cell-based, human
# Set-up: RFU PODN (11730768_x_at) / Fold change /veh PODN (11730768_x_at) / RFU LINC00158 (11744669_a_at) / Fold change /veh LINC00158 (11744669_a_at) / RFU DUSP10 (11751237_a_at) / Fold change /veh DUSP10 (11751237_a_at) / RFU ID3 (11757404_x_at) / Fold change /veh ID3 (11757404_x_at) / RFU PLEKHG5 (11737974_s_at) / Fold change /veh PLEKHG5 (11737974_s_at) / RFU LRRC4B (11730491_at) / Fold change /veh LRRC4B (11730491_at) / RFU GIMAP4 (11747438_a_at) / Fold change /veh GIMAP4 (11747438_a_at) / RFU KRT8 (11758183_x_at) / Fold change /veh KRT8 (11758183_x_at) / RFU CNN1 (11734310_a_at) / Fold change /veh CNN1 (11734310_a_at) / RFU VPS37D (11726825_at) / Fold change /veh VPS37D (11726825_at) / RFU C10orf10 (11716522_x_at) / Fold change /veh C10orf10 (11716522_x_at) / RFU KIR2DL2 /// KIR2DL4 /// KIR2DL5A /// KIR2DL5B /// KIR2DS1 /// KIR2DS2 /// KIR2DS3 /// KIR2DS4 /// KIR3DL3 /// KIR3DL3 /// KIR3DS1 (11738374_at) / Fold change /veh KIR2DL2 /// KIR2DL4 /// KIR2DL5A /// KIR2DL5B /// KIR2DS1 /// KIR2DS2 /// KIR2DS3 /// KIR2DS4 /// KIR3DL3 /// KIR3DL3 /// KIR3DS1 (11738374_at) / RFU C1QL1 (11718748_at) / Fold change /veh C1QL1 (11718748_at) / RFU TMPRSS4 (11747572_a_at) / Fold change /veh TMPRSS4 (11747572_a_at) / RFU HAMP (11756126_x_at) / Fold change /veh HAMP (11756126_x_at) / RFU RNFT2 (11725882_a_at) / Fold change /veh RNFT2 (11725882_a_at) / RFU NR4A2 (11747474_a_at) / Fold change /veh NR4A2 (11747474_a_at) / RFU ABCC12 (11746883_a_at) / Fold change /veh ABCC12 (11746883_a_at) / RFU TMEM136 (11760407_x_at) / Fold change /veh TMEM136 (11760407_x_at) / RFU CLDN22 /// WWC2 (11732394_at) / Fold change /veh CLDN22 /// WWC2 (11732394_at) / RFU HLA-DPB1 (11760878_x_at) / Fold change /veh HLA-DPB1 (11760878_x_at) / RFU SPINT1 (11716480_a_at) / Fold change /veh SPINT1 (11716480_a_at) / RFU GAP43 (11754022_s_at) / Fold change /veh GAP43 (11754022_s_at) / RFU A4GNT (11735810_at) / Fold change /veh A4GNT (11735810_at) / RFU PRB3 (11715151_x_at) / Fold change /veh PRB3 (11715151_x_at) / RFU TUBB4B (11761932_at) / Fold change /veh TUBB4B (11761932_at) / RFU CAPN14 (11732068_a_at) / Fold change /veh CAPN14 (11732068_a_at) / RFU TMCC2 (11721928_a_at) / Fold change /veh TMCC2 (11721928_a_at) / RFU IRGQ (11745062_a_at) / Fold change /veh IRGQ (11745062_a_at) / RFU FAM174B (11720279_a_at) / Fold change /veh FAM174B (11720279_a_at) / RFU TMPRSS4 (11748680_a_at) / Fold change /veh TMPRSS4 (11748680_a_at) / RFU FAM212B (11763350_a_at) / Fold change /veh FAM212B (11763350_a_at) / RFU PLEKHG5 (11743358_a_at) / Fold change /veh PLEKHG5 (11743358_a_at) / RFU ZSCAN30 (11745921_a_at) / Fold change /veh ZSCAN30 (11745921_a_at) / RFU CMKLR1 (11741424_a_at) / Fold change /veh CMKLR1 (11741424_a_at) / RFU LOC101060620 /// MAPK8IP1 (11723275_at) / Fold change /veh LOC101060620 /// MAPK8IP1 (11723275_at) / RFU SPTSSB (11747773_x_at) / Fold change /veh SPTSSB (11747773_x_at) / RFU PRSS12 (11739890_at) / Fold change /veh PRSS12 (11739890_at) / RFU BIN1 (11741810_x_at) / Fold change /veh BIN1 (11741810_x_at) / RFU WNT11 (11732464_a_at) / Fold change /veh WNT11 (11732464_a_at) / RFU C10orf10 (11716521_a_at) / Fold change /veh C10orf10 (11716521_a_at) / RFU C5orf56 (11738089_at) / Fold change /veh C5orf56 (11738089_at) / RFU CYB561 (11721691_x_at) / Fold change /veh CYB561 (11721691_x_at) / RFU ANKRD19P (11752326_a_at) / Fold change /veh ANKRD19P (11752326_a_at) / RFU OR2T12 /// OR2T33 /// OR2T8 (11738714_s_at) / Fold change /veh OR2T12 /// OR2T33 /// OR2T8 (11738714_s_at) / RFU VCAN (11748164_a_at) / Fold change /veh VCAN (11748164_a_at) / RFU JSRP1 (11732532_at) / Fold change /veh JSRP1 (11732532_at) / RFU KRTAP10-11 (11738290_x_at) / Fold change /veh KRTAP10-11 (11738290_x_at) / RFU MYO3A (11730013_a_at) / Fold change /veh MYO3A (11730013_a_at) / RFU EBF3 (11725865_a_at) / Fold change /veh EBF3 (11725865_a_at) / RFU CAMK2N1 (11719241_x_at) / Fold change /veh CAMK2N1 (11719241_x_at) / RFU C5orf56 (11738088_a_at) / Fold change /veh C5orf56 (11738088_a_at) / RFU OLFML3 (11715873_a_at) / Fold change /veh OLFML3 (11715873_a_at) / RFU LOC100653217 /// NTM (11731650_a_at) / Fold change /veh LOC100653217 /// NTM (11731650_a_at) / RFU MAPK11 (11762145_a_at) / Fold change /veh MAPK11 (11762145_a_at) / RFU FIZ1 (11724087_x_at) / Fold change /veh FIZ1 (11724087_x_at) / RFU OASL (11726364_x_at) / Fold change /veh OASL (11726364_x_at) / RFU SOX15 (11748057_x_at) / Fold change /veh SOX15 (11748057_x_at) / RFU CD79A (11719716_a_at) / Fold change /veh CD79A (11719716_a_at) / RFU HIST1H1D (11736915_at) / Fold change /veh HIST1H1D (11736915_at) / RFU CASKIN2 (11723855_a_at) / Fold change /veh CASKIN2 (11723855_a_at) / RFU LOC730098 (11760151_x_at) / Fold change /veh LOC730098 (11760151_x_at) / RFU OR4N2 (11742367_at) / Fold change /veh OR4N2 (11742367_at) / RFU PRRT2 (11749266_a_at) / Fold change /veh PRRT2 (11749266_a_at) / RFU SNX32 (11753110_a_at) / Fold change /veh SNX32 (11753110_a_at) / RFU CDHR5 (11726645_a_at) / Fold change /veh CDHR5 (11726645_a_at) / RFU RCAN1 (11760418_a_at) / Fold change /veh RCAN1 (11760418_a_at) / RFU FAM167A (11723789_a_at) / Fold change /veh FAM167A (11723789_a_at) / RFU FAM26E (11764081_at) / Fold change /veh FAM26E (11764081_at) / RFU ISYNA1 (11749810_s_at) / Fold change /veh ISYNA1 (11749810_s_at) / RFU ACY1 (11761880_at) / Fold change /veh ACY1 (11761880_at) / RFU 11764098_at / Fold change /veh 11764098_at / RFU SAMD14 (11745864_x_at) / Fold change /veh SAMD14 (11745864_x_at) / RFU NPB (11741838_a_at) / Fold change /veh NPB (11741838_a_at) / RFU TMPRSS6 (11731388_a_at) / Fold change /veh TMPRSS6 (11731388_a_at) / RFU KRTAP10-2 (11738614_at) / Fold change /veh KRTAP10-2 (11738614_at) / RFU ARHGAP8 /// PRR5-ARHGAP8 (11727945_x_at) / Fold change /veh ARHGAP8 /// PRR5-ARHGAP8 (11727945_x_at) / RFU KRTAP5-7 /// NADSYN1 (11734609_at) / Fold change /veh KRTAP5-7 /// NADSYN1 (11734609_at) / RFU RASL12 (11751679_a_at) / Fold change /veh RASL12 (11751679_a_at) / RFU CDKN2B (11736163_a_at) / Fold change /veh CDKN2B (11736163_a_at) / RFU PRF1 (11729649_at) / Fold change /veh PRF1 (11729649_at) / RFU, ZNF638 /// ZNF638-IT1 / Fold change vs veh, ZNF638 /// ZNF638-IT1 / RFU, PANK3 / Fold change vs veh, PANK3 / RFU, SH3YL1 / Fold change vs veh, SH3YL1 / RFU, ZEB2 / Fold change vs veh, ZEB2 / RFU, NRIP1 / Fold change vs veh, NRIP1 / RFU, PTTG1IP / Fold change vs veh, PTTG1IP / RFU, CAPN2 / Fold change vs veh, CAPN2 / RFU, MED14 / Fold change vs veh, MED14 / RFU, SNORA58 / Fold change vs veh, SNORA58 / RFU, C1orf63 / Fold change vs veh, C1orf63 / RFU, LRRFIP1 / Fold change vs veh, LRRFIP1 / RFU, NDUFAF7 / Fold change vs veh, NDUFAF7 / RFU, SLC12A2 / Fold change vs veh, SLC12A2 / RFU, IBTK / Fold change vs veh, IBTK / RFU, ESF1 / Fold change vs veh, ESF1 / Fold change vs veh, TMEM50B / RFU, TAOK1 / Fold change vs veh, TAOK1 / RFU, ACBD3 / Fold change vs veh, ACBD3 / RFU, TMA16 / Fold change vs veh, TMA16 / RFU, RWDD3 / Fold change vs veh, RWDD3 / RFU, BCAT1 / Fold change vs veh, BCAT1 / RFU, EDEM3 / Fold change vs veh, EDEM3 / RFU, TMEM33 / Fold change vs veh, TMEM33 / RFU, WDR75 / Fold change vs veh, WDR75 / RFU, AHCTF1 / Fold change vs veh, AHCTF1 / RFU, TFRC / Fold change vs veh, TFRC / RFU, ZDHHC17 / Fold change vs veh, ZDHHC17 / RFU, NOM1 / Fold change vs veh, NOM1 / RFU, ARL8B / Fold change vs veh, ARL8B / RFU, ZBTB11 / Fold change vs veh, ZBTB11 / RFU, TAMM41 / Fold change vs veh, TAMM41 / RFU, KIAA1704 /// LOC100996395 / Fold change vs veh, KIAA1704 /// LOC100996395 / RFU, ING1 / Fold change vs veh, ING1 / RFU, TRMT61B / Fold change vs veh, TRMT61B / RFU, FUBP3 / Fold change vs veh, FUBP3 / RFU, TP53 / Fold change vs veh, TP53 / RFU, TNKS2 / Fold change vs veh, TNKS2 / RFU, ZFP14 / Fold change vs veh, ZFP14 / RFU, ACTR2 / Fold change vs veh, ACTR2 / RFU, PPP3R1 / Fold change vs veh, PPP3R1 / RFU, PIK3R1 / Fold change vs veh, PIK3R1 / RFU, HNRNPA1 / Fold change vs veh, HNRNPA1 / RFU, RNF170 / Fold change vs veh, RNF170 / RFU, ZNF28 / Fold change vs veh, ZNF28 / RFU, RNGTT / Fold change vs veh, RNGTT / RFU, OGT / Fold change vs veh, OGT / RFU, BRD1 / Fold change vs veh, BRD1 / RFU, MARS / Fold change vs veh, MARS / RFU, ZNF655 / Fold change vs veh, ZNF655 / RFU, FAHD1 / Fold change vs veh, FAHD1 / RFU, BDP1 / Fold change vs veh, BDP1 / RFU, LRRCC1 / Fold change vs veh, LRRCC1 / RFU, ARID1A / Fold change vs veh, ARID1A / RFU, ZNF146 / Fold change vs veh, ZNF146 / RFU, ZNF330 / Fold change vs veh, ZNF330 / RFU, GPN3 / Fold change vs veh, GPN3 / RFU, C9orf123 / Fold change vs veh, C9orf123 / RFU, N4BP2L2 / Fold change vs veh, N4BP2L2 / RFU, ARFIP1 / Fold change vs veh, ARFIP1 / RFU, FAM179B / Fold change vs veh, FAM179B / RFU, BCL10 / Fold change vs veh, BCL10 / RFU, UHRF1BP1L / Fold change vs veh, UHRF1BP1L / RFU, BET1 / Fold change vs veh, BET1 / RFU, CNOT2 / Fold change vs veh, CNOT2 / RFU, ZNF268 / Fold change vs veh, ZNF268 / Fold change vs veh, ZNF507 / RFU, DGCR2 / Fold change vs veh, DGCR2 / RFU, WDSUB1 / Fold change vs veh, WDSUB1 / Fold change vs veh, HSP90B1 /// MIR3652 / RFU, ADSS / Fold change vs veh, ADSS / RFU, GK / Fold change vs veh, GK / RFU, ZNF148 / Fold change vs veh, ZNF148 / RFU, TAF9 / Fold change vs veh, TAF9 / RFU, SLC1A5 / Fold change vs veh, SLC1A5 / RFU, SLMO2 / Fold change vs veh, SLMO2 / RFU, ABCC4 / Fold change vs veh, ABCC4 / RFU, LOC101060439 /// RAP1B / Fold change vs veh, LOC101060439 /// RAP1B / RFU, RFX7 / Fold change vs veh, RFX7 / RFU, GTPBP10 / Fold change vs veh, GTPBP10 / RFU, CNEP1R1 / Fold change vs veh, CNEP1R1 / RFU, BIVM-ERCC5 /// ERCC5 / Fold change vs veh, BIVM-ERCC5 /// ERCC5 / RFU, ILF3 / Fold change vs veh, ILF3 / RFU 11762660_at / Fold change /veh 11762660_at / RFU VCAN (11757783_s_at) / Fold change /veh VCAN (11757783_s_at) / RFU DDX43 (11728927_at) / Fold change /veh DDX43 (11728927_at) / RFU KRT8 (11758188_x_at) / Fold change /veh KRT8 (11758188_x_at) / RFU NKD1 (11759106_at) / Fold change /veh NKD1 (11759106_at) / RFU SRD5A1 (11742802_a_at) / Fold change /veh SRD5A1 (11742802_a_at) / RFU TPSAB1 /// TPSB2 (11721975_s_at) / Fold change /veh TPSAB1 /// TPSB2 (11721975_s_at) / RFU GSTM3 (11746129_a_at) / Fold change /veh GSTM3 (11746129_a_at) / RFU IL23R (11737362_x_at) / Fold change /veh IL23R (11737362_x_at) / RFU TMEM51 (11727254_a_at) / Fold change /veh TMEM51 (11727254_a_at) / RFU PIWIL2 (11732686_x_at) / Fold change /veh PIWIL2 (11732686_x_at) / RFU ORM1 (11744905_x_at) / Fold change /veh ORM1 (11744905_x_at) / RFU CCDC152 (11743942_at) / Fold change /veh CCDC152 (11743942_at) / RFU ECM1 (11717891_a_at) / Fold change /veh ECM1 (11717891_a_at) / RFU IL23R (11748794_a_at) / Fold change /veh IL23R (11748794_a_at) / RFU TNFAIP8L3 (11732012_x_at) / Fold change /veh TNFAIP8L3 (11732012_x_at) / RFU MBOAT4 (11741988_at) / Fold change /veh MBOAT4 (11741988_at) / RFU 11764193_at / Fold change /veh 11764193_at / RFU TMEM53 (11763286_at) / Fold change /veh TMEM53 (11763286_at) / RFU MAGEB2 (11727129_at) / Fold change /veh MAGEB2 (11727129_at) / RFU TMEM200A (11744735_a_at) / Fold change /veh TMEM200A (11744735_a_at) / RFU CCDC152 (11751479_a_at) / Fold change /veh CCDC152 (11751479_a_at) / RFU FAM211A (11726209_a_at) / Fold change /veh FAM211A (11726209_a_at) / RFU RGS16 (11746705_a_at) / Fold change /veh RGS16 (11746705_a_at) / RFU VCAN (11755009_s_at) / Fold change /veh VCAN (11755009_s_at) / RFU RHOB (11743442_s_at) / Fold change /veh RHOB (11743442_s_at) / RFU RGS16 (11720943_a_at) / Fold change /veh RGS16 (11720943_a_at) / RFU RGS16 (11720944_at) / Fold change /veh RGS16 (11720944_at) / RFU, VPS4B / Fold change vs veh, VPS4B / RFU, CREB1 / Fold change vs veh, CREB1 / RFU, DNAJC13 / Fold change vs veh, DNAJC13 / RFU, GNAQ / Fold change vs veh, GNAQ / RFU, CDK5R1 / Fold change vs veh, CDK5R1 / RFU, ZRANB3 / Fold change vs veh, ZRANB3 / RFU, CUL4A / Fold change vs veh, CUL4A / RFU, CCNY / Fold change vs veh, CCNY / RFU, UFL1 / Fold change vs veh, UFL1 / RFU, COG3 / Fold change vs veh, COG3 / RFU, DIAPH2 / Fold change vs veh, DIAPH2 / RFU, SKA2 / Fold change vs veh, SKA2 / RFU, AFF3 / Fold change vs veh, AFF3 / RFU, LMF1 / Fold change vs veh, LMF1 / RFU, IPO11 / Fold change vs veh, IPO11 / RFU, DFFB / Fold change vs veh, DFFB / RFU, FOXP1 / Fold change vs veh, FOXP1 / RFU, CARD8 / Fold change vs veh, CARD8 / RFU, STRN3 / Fold change vs veh, STRN3 / RFU, ADK / Fold change vs veh, ADK / RFU, RASSF2 / Fold change vs veh, RASSF2 / RFU, WIPF1 / Fold change vs veh, WIPF1 / RFU, LARP1B / Fold change vs veh, LARP1B / RFU, RASA1 / Fold change vs veh, RASA1 / RFU, RB1 / Fold change vs veh, RB1 / RFU, PPFIA1 / Fold change vs veh, PPFIA1 / RFU, MAT2A / Fold change vs veh, MAT2A / RFU, CCT5 / Fold change vs veh, CCT5 / RFU, WDR92 / Fold change vs veh, WDR92 / RFU, CUX1 / Fold change vs veh, CUX1 / RFU, TTC7A / Fold change vs veh, TTC7A / RFU, TMEM135 / Fold change vs veh, TMEM135 / RFU, DEPTOR / Fold change vs veh, DEPTOR / RFU, CPM / Fold change vs veh, CPM / RFU, DNAJB6 / Fold change vs veh, DNAJB6 / RFU, CACNA2D3 / Fold change vs veh, CACNA2D3 / RFU, DTX4 / Fold change vs veh, DTX4 / RFU, TFCP2 / Fold change vs veh, TFCP2 / RFU, GMCL1 /// GMCL1P1 / Fold change vs veh, GMCL1 /// GMCL1P1 / RFU, AEBP2 / Fold change vs veh, AEBP2 / RFU, SNHG1 /// SNORD22 /// SNORD25 /// SNORD26 /// SNORD27 /// SNORD28 /// SNORD29 /// SNORD31 / Fold change vs veh, SNHG1 /// SNORD22 /// SNORD25 /// SNORD26 /// SNORD27 /// SNORD28 /// SNORD29 /// SNORD31 / Fold change (Aza/veh), C12orf56 (ProbeSet 11735607_a_at) / Fold change (ACY-1035/veh), C12orf56 (ProbeSet 11735607_a_at) / Fold change (Aza/veh), FGFR1OP (ProbeSet 11751329_s_at) / Fold change (ACY-1035/veh), FGFR1OP (ProbeSet 11751329_s_at) / Fold change (Aza/veh), VPS36 (ProbeSet 11739960_a_at) / Fold change (ACY-1035/veh), VPS36 (ProbeSet 11739960_a_at) / RFU SYPL1 (11715823_x_at) / Fold change /veh SYPL1 (11715823_x_at) / RFU IGFBP7 (11715501_s_at) / Fold change /veh IGFBP7 (11715501_s_at) / RFU REEP3 (11722064_at) / Fold change /veh REEP3 (11722064_at) / RFU IGLL1 (11728026_x_at) / Fold change /veh IGLL1 (11728026_x_at): dose or concentration left out as unconfirmed
# Conditions: ProbeSet 11727545_at; LIST B
smiles,measurement,value
Nc1ccc(-c2cccs2)cc1NC(=O)c1ccc2c(c1)cc(C1CC1)n2CCN1CCOCC1 [ACY-1035],"RFU, PANK3",81.04 RFU
